From ChEMBL document CHEMBL4834430, “Design and Structure-Activity Relationships of Isothiocyanates as Potent and Selective N-Acylethanolamine-Hydrolyzing Acid Amidase Inhibitors” (J Med Chem, 2021)

Assays:
Cathepsin K = target: T1, Cathepsin K (Homo sapiens, UniProt P43235); assay: Inhibition of recombinant human Cathepsin K using Z-Phe-Arg-AMC as fluorogenic substrate preincubated for 120 mins followed by substrate addition by fluorescence assay
T1 sequence (P43235 whole entry): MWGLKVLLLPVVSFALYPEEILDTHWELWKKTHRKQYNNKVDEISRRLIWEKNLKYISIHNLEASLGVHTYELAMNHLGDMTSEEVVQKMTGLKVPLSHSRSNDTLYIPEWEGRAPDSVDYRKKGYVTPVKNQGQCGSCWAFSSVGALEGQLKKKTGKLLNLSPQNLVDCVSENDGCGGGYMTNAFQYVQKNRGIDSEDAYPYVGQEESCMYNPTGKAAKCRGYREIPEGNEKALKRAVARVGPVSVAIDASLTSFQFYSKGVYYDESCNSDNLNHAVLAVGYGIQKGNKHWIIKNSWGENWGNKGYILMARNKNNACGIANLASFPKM

[1] = target: T2, N-acylethanolamine-hydrolyzing acid amidase (Homo sapiens, UniProt Q02083); assay: Inhibition of human NAAA using N-(4-methyl coumarin)-palmitamide as fluorogenic substrate preincubated for 90 mins followed by substrate addition by fluorescence assay
T2 sequence (Q02083 whole entry): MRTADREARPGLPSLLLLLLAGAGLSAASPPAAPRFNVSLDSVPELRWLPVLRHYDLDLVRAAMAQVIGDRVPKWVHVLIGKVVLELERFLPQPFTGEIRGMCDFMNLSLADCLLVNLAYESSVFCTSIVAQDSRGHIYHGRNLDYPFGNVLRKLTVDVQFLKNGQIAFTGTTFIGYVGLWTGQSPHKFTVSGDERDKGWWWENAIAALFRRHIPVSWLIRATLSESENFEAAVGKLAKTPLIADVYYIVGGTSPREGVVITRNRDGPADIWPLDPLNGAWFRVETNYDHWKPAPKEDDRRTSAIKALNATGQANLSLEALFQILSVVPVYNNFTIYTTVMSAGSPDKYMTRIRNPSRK

[2] = Drug concentration in brain of CD-1 mouse at 2 mg/kg, iv administered as single cassette dose measured after 15 mins; format: ADME, organism-based; settings: read-out: Ct
[3] = Half life in mouse liver microsomes at 1 uM in presence of NADPH by LC-MS/MS analysis; format: ADME, Microsome
[4] = Drug concentration in plasma of CD-1 mouse at 2 mg/kg, iv administered as single cassette dose measured after 15 mins; format: ADME, organism-based
[5] = Drug concentration in plasma of CD-1 mouse at 8 mg/kg, po administered as single cassette dose measured after 60 mins; format: ADME, organism-based
[6] = Half life in rat liver microsomes at 1 uM in presence of NADPH by LC-MS/MS analysis; format: ADME, Microsome
[7] = Drug concentration in plasma of CD-1 mouse at 8 mg/kg, po administered as single cassette dose measured after 30 mins; format: ADME, organism-based
[8] = Half life in human liver microsomes at 1 uM in presence of NADPH by LC-MS/MS analysis; format: ADME, Microsome
[9] = target: T2, N-acylethanolamine-hydrolyzing acid amidase; assay: Inhibition of NAAA (unknown origin)
[10] = Drug metabolism in rat liver microsomes assessed as (R)-2-amino-3-((1s,3S)-3-(2-fluoro-4-(2-methoxypyridin-3-yl)benzyloxy)cyclobutylcarbamothioylthio)propanoic acid formation at 1 uM in absence of NADPH by LC-MS/MS analysis; format: ADME, Microsome
[11] = Drug metabolism in rat liver microsomes assessed as […] (R)-2-amino-3-((1s,3S)-3-(2-fluoro-4-(2-methoxypyridin-3-yl)benzyloxy)cyclobutylcarbamoylthio)propanoic acid formation at 1 uM in absence of NADPH by LC-MS/MS analysis; format: ADME
[12] = Drug metabolism in rat liver microsomes assessed as (2-fluoro-4-(2-methoxypyridin-3-yl)phenyl)methanol formation at 1 uM in presence of NADPH by LC-MS/MS analysis; format: ADME, Microsome
[13] = Drug metabolism in rat liver microsomes assessed as (1s,3s)-3-(2-fluoro-4-(2-methoxypyridin-3-yl)benzyloxy)cyclobutanamine formation at 1 uM in presence of NADPH by LC-MS/MS analysis; format: ADME, Microsome
[14] = target: T3, N-acylethanolamine-hydrolyzing acid amidase (Homo sapiens) (UniProt Q02083); assay: Inhibition of human NAAA at 1 uM using N-(4-methyl coumarin)-palmitamide as fluorogenic substrate preincubated for 90 mins followed by substrate addition by fluorescence assay relative to control
T3 sequence (whole entry): T2 sequence (Q02083 whole entry)

For `Fc1cc(-c2ccc3c(c2)CCO3)ccc1CO[C@H]1C[C@@H](N=C=S)C1`, the IC50 (Cathepsin K) was 83.5 nM and the IC50 [1] was 4.5 nM.
With `Fc1cc(-c2ccc(OC(F)(F)F)c(F)c2)ccc1CO[C@H]1C[C@@H](N=C=S)C1` the concentration at 0.25 h [2] was 8 ng/g, the IC50 (Cathepsin K) was 58.6 nM and the half-life at 1 µM [3] was 2.9 min. For the same compound, the concentration at 0.25 h [4] was 178 ng/mL, the concentration at 1 h [5] was 7 ng/mL and the IC50 [1] was 97.1 nM. The half-life at 1 µM [6] was 9.1 min, the concentration at 0.5 h [7] was 12 ng/mL and the half-life at 1 µM [8] was 10.9 min.
With `O=C(CCCCCc1cccc(Cl)c1)N1CCOC1=O` the IC50 [9] was 9 nM.
In the case of `COc1ncccc1-c1ccc(CO[C@H]2C[C@@H](N=C=S)C2)c(F)c1`, the Drug metabolism [10] is reported as “Metabolite_Detected”, the Drug metabolism [11] is reported as “Metabolite_Detected” and the half-life at 1 µM [3] is reported as 6.8 min. For the same compound, the Drug metabolism [12] was “Metabolite_Detected”, the IC50 [1] was 304 nM and the half-life at 1 µM [6] was 14.5 min. The half-life at 1 µM [8] was 15.3 min and the Drug metabolism [13] was “Metabolite_Detected”.
With `COc1ccc(-c2ccc(CO[C@H]3CCC[C@@H](N=C=S)C3)cc2)cc1F` the inhibition [14] was 35%.
In the case of `COc1ccc(-c2ncc(C(=O)N[C@H]3C[C@@H](N=C=S)C3)o2)cc1`, the inhibition [14] is reported as 51%.
For `CS(=O)(=O)c1ccc(-c2ccc(C(=O)N[C@H]3C[C@@H](N=C=S)C3)nc2)cc1`, the inhibition [14] was 41%.
